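In this assay, cells in 96-well plates receive the compound at five concentrations for 48 hours. Endpoints are linearly interpolated between the surrounding concentrations. TGI is the concentration that stops growth completely.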 A value given as a limit tells only on which side of the number the result lay.

Test systems include CCRF-CEM leukemia; UACC-257 melanoma; SW-620 colon; NCI-H23 lung; HOP-62 NSCLC; SNB-19 CNS; MOLT-4 leukemia; CAKI-1 renal; MDA-MB-231 breast; OVCAR-5 ovarian; SF-268 CNS; HOP-92 NSCLC; A549 NSCLC; SF-539 CNS; UO-31 renal; SK-MEL-28 melanoma; MCF7 breast; U251 CNS; SK-MEL-2 melanoma.
Common to all, as to assay: NCI-60 cell line screen, 48 h

`CCOC(=O)N1CCN(c2nc(C)n(-c3ccccc3)c(=S)c2C#N)CC1`: the TGI is more than 62.6 µM in the experiment on CCRF-CEM leukemia; more than 100 µM in the experiment on UACC-257 melanoma; more than 100 µM in the experiment with SW-620 colon; more than 100 µM in the experiment with NCI-H23 lung; more than 100 µM in the experiment on HOP-62 NSCLC; more than 100 µM with SNB-19 CNS. Also, the TGI with MOLT-4 leukemia is more than 100 µM; in the experiment with CAKI-1 renal it was more than 100 µM; in the experiment with MDA-MB-231 breast, more than 84.3 µM; with OVCAR-5 ovarian it was more than 100 µM; in the experiment on SF-268 CNS, more than 100 µM; with HOP-92 NSCLC, more than 100 µM. Besides, the TGI in the experiment on A549 NSCLC, in the experiment on SF-539 CNS, in the experiment on UO-31 renal, in the experiment on SK-MEL-28 melanoma, with MCF7 breast and in the experiment with U251 CNS was more than 100 µM each time. The compound further registered a TGI in the experiment with SK-MEL-2 melanoma of more than 100 µM.
With `CC(C)n1c(=O)[nH]n(-c2ccccc2)c1=O`, the TGI in the experiment on CCRF-CEM leukemia, in the experiment on UACC-257 melanoma, with SW-620 colon, in the experiment with NCI-H23 lung, in the experiment with HOP-62 NSCLC and in the experiment on SNB-19 CNS was more than 100 µM throughout. The TGI with MOLT-4 leukemia, with CAKI-1 renal, with MDA-MB-231 breast, in the experiment on OVCAR-5 ovarian, with SF-268 CNS and in the experiment with HOP-92 NSCLC was more than 100 µM in each case. Besides, the TGI in the experiment with A549 NSCLC, in the experiment on SF-539 CNS, with UO-31 renal, in the experiment with SK-MEL-28 melanoma, in the experiment with MCF7 breast and with U251 CNS was more than 100 µM in each case. Besides, the TGI in the experiment on SK-MEL-2 melanoma is more than 100 µM.
For the compound `Cc1ccc2c(c1)C(C1Cc3cccc(C)c3C1=O)OC2=O` (stereo not drawn), the TGI in the experiment on CCRF-CEM leukemia, in the experiment with UACC-257 melanoma, with SW-620 colon, in the experiment on NCI-H23 lung, in the experiment on HOP-62 NSCLC and in the experiment with SNB-19 CNS was more than 100 µM throughout. Also, the TGI in the experiment on MOLT-4 leukemia, with CAKI-1 renal, in the experiment with MDA-MB-231 breast, in the experiment with OVCAR-5 ovarian, in the experiment with SF-268 CNS and in the experiment with HOP-92 NSCLC was more than 100 µM in each case. Besides, the TGI in the experiment on A549 NSCLC, in the experiment with SF-539 CNS, in the experiment with UO-31 renal, in the experiment on SK-MEL-28 melanoma, in the experiment with MCF7 breast and in the experiment with U251 CNS was more than 100 µM each time. Moreover, the TGI in the experiment with SK-MEL-2 melanoma was more than 100 µM.
In the case of `C=C(C)[C@@H]1CCC2=C[C@H](OC2=O)[C@@]2(C)C[C@@H]2C(=O)/C=C(/C)C(=O)[C@H]1OC(C)=O`, the TGI was more than 25.2 µM in the experiment on CCRF-CEM leukemia; 81.4 µM in the experiment on UACC-257 melanoma; more than 44.6 µM in the experiment with SW-620 colon; more than 58.5 µM in the experiment with NCI-H23 lung; 97.6 µM in the experiment with HOP-62 NSCLC; more than 73.7 µM in the experiment on SNB-19 CNS. The TGI in the experiment on MOLT-4 leukemia is more than 39.4 µM; in the experiment with CAKI-1 renal, 42 µM; in the experiment with MDA-MB-231 breast it was more than 100 µM; in the experiment with OVCAR-5 ovarian it was 43.9 µM; in the experiment on SF-268 CNS, more than 72.6 µM; in the experiment on HOP-92 NSCLC, more than 93.3 µM. Moreover, the TGI was more than 71.9 µM with A549 NSCLC; more than 33.7 µM with SF-539 CNS; more than 100 µM with UO-31 renal; 52.9 µM in the experiment with SK-MEL-28 melanoma; more than 37.6 µM with MCF7 breast; more than 68 µM with U251 CNS. The TGI in the experiment on SK-MEL-2 melanoma is more than 80.1 µM.
Turning to `C[C@]12CC[C@H]3[C@@H](CCC4=CC(=O)CC[C@@]43C)[C@@H]1CC[C@@H]2C(=O)Nc1ccc([N+](=O)[O-])c(C(F)(F)F)c1`, the TGI in the experiment on CCRF-CEM leukemia was 71.3 µM; with UACC-257 melanoma, more than 10 µM; in the experiment on SW-620 colon it was 37.6 µM; with NCI-H23 lung, more than 10 µM; in the experiment with HOP-62 NSCLC it was 67.1 µM; in the experiment on SNB-19 CNS, 36.8 µM. In addition, the TGI in the experiment with MOLT-4 leukemia is 70.8 µM; with CAKI-1 renal, 35.9 µM; with MDA-MB-231 breast, 43.4 µM; in the experiment with OVCAR-5 ovarian, more than 10 µM; with SF-268 CNS, 36.5 µM; in the experiment with HOP-92 NSCLC, 58.2 µM. Also, the TGI with A549 NSCLC came out at 37.1 µM; in the experiment with SF-539 CNS it was 33.5 µM; in the experiment on UO-31 renal, 32.8 µM; in the experiment on SK-MEL-28 melanoma, 37.4 µM; with MCF7 breast, 30.5 µM; with U251 CNS, 31.5 µM. Also, in the experiment with SK-MEL-2 melanoma, the TGI came to 33.2 µM.
As for `CC(=O)OC[C@@]1(C)[C@@H]2[C@@H]3[C@@]4(CO[C@]3(C)C(=O)[C@@]3(O)C[C@H](C)[C@H](OC(C)=O)[C@@H]3[C@H]4OC(C)=O)[C@H](OC(=O)c3ccccc3)C[C@@H]21`, the TGI with CCRF-CEM leukemia, in the experiment on UACC-257 melanoma, with SW-620 colon, in the experiment with NCI-H23 lung, in the experiment with HOP-62 NSCLC and in the experiment with SNB-19 CNS was more than 100 µM each time. For the same compound, the TGI in the experiment with MOLT-4 leukemia, in the experiment with CAKI-1 renal, with MDA-MB-231 breast, with OVCAR-5 ovarian, in the experiment on SF-268 CNS and with HOP-92 NSCLC was more than 100 µM throughout. In addition, the TGI in the experiment with A549 NSCLC, in the experiment with SF-539 CNS, in the experiment with UO-31 renal, in the experiment with SK-MEL-28 melanoma, with MCF7 breast and with U251 CNS was more than 100 µM each time. The same compound displayed a TGI in the experiment on SK-MEL-2 melanoma of more than 100 µM.
For `COC(=O)C1(Cc2cccc(C)c2)Cc2c(C)cccc2C1=O` (stereo not drawn), the TGI in the experiment with CCRF-CEM leukemia, in the experiment with UACC-257 melanoma, with SW-620 colon, with NCI-H23 lung, in the experiment on HOP-62 NSCLC and in the experiment with SNB-19 CNS was more than 100 µM throughout. In addition, the TGI in the experiment with MOLT-4 leukemia, with CAKI-1 renal, in the experiment with MDA-MB-231 breast, in the experiment on OVCAR-5 ovarian, in the experiment with SF-268 CNS and in the experiment with HOP-92 NSCLC was more than 100 µM in each case. Besides, the TGI with A549 NSCLC is more than 100 µM; with SF-539 CNS, more than 100 µM; in the experiment with UO-31 renal, more than 100 µM; in the experiment with SK-MEL-28 melanoma, more than 100 µM; in the experiment on MCF7 breast, 90.8 µM; with U251 CNS it was more than 100 µM. The TGI in the experiment on SK-MEL-2 melanoma was more than 100 µM.

For the origin of these results see PubChem BioAssay (NCI).
